According to BindingDB's records for doi:10.1016/j.bioorg.2015.10.005 (Hazara University, 2015):

Biological target: Urease subunit alpha (Sporosarcina pasteurii, UniProt P41020)
Assay: Urease Inhibition Assay
Conditions: pH 7
Method: This assay was modified from Berthelot assay and was employed for the determination of urease activity. The assay is based on the hydrolysis of urea into ammonia which reacts with phenol-hypochlorite to form light blue colored complex measured at 625 nm. A total volume of 85 µl assay mixture contained 10 µl of 50 mM phosphate buffer, pH 7.0, 10 µl of sample solution and 25 µl of Bacillus pasteurii urease (Sigma) solution (0.015 units). The contents were pre-incubated at 37 °C for 10 min. Then, 40 µl of urea stock solution (20 mM) was added to each well and incubation continued at 37 °C for further 10 min and preread at 625 nm using the 96-well plate reader Synergy HT (Biotek Inc.). Phenol hypochlorite (115 µl) reagent was added in each well (freshly prepared by mixing 45 µl phenol reagent with 70 µl of alkali reagent). For color development, incubation was done at 37 °C for another 10 min. Absorbance was again measured at 625 nm.

Sequence of Urease subunit alpha (P41020 as listed by the source): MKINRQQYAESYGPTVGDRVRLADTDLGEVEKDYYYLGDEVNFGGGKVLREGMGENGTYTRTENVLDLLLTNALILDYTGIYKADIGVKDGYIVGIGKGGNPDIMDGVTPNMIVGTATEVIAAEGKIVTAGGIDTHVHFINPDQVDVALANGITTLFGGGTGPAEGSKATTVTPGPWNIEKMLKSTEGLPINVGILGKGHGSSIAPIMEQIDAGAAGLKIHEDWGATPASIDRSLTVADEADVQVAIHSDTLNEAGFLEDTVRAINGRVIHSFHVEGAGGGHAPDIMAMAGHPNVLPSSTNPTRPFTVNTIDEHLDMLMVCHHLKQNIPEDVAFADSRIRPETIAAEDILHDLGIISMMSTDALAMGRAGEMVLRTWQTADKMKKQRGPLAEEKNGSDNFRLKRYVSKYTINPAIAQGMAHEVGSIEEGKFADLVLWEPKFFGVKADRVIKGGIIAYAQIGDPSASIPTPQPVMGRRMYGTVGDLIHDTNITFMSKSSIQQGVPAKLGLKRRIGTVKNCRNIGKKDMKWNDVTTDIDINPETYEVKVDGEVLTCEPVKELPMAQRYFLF

| Structure (SMILES) | IC50 [µM] |
| --- | --- |
| COc1cc(/C=N/N=C2\NC(=O)CS2)cc(Br)c1OC [(E)-2((E)-(3-Bromo-4,5-dimethoxybenzylidene)hydrazono) thiazolidine-4-one (7)] | 36.6 |
| O=C1CS/C(=N/N=C\c2ccc(O)cc2)N1 [(E)-2((E)-(4-Hydroxybenzylidin)hydrazono)thiazolidine-4-one (6)] | 14.6 |
| O=C1CSC(N/N=C/c2ccc([N+](=O)[O-])cc2)=N1 [(E)-2((E)-(4-Nitrobenzylidene)hydrazono)thiazolidine-4-one (2)] | 26.9 |
| COc1cccc(/C=N/N=C2\NC(=O)CS2)c1OC [(E)-2-((E)-(2,3-Dimethoxybenzylidene)hydrazono)thiazolidin-4-one (4)] | 52.5 |
| O=C1CS/C(=N/N=C/c2ccccc2[N+](=O)[O-])N1 [(E)-2-((E)-(2-Nitrobenzylidene)hydrazono)thiazolidin-4-one (1)] | 47.5 |
| O=C1CS/C(=N/N=C/c2cc(Cl)cc(Cl)c2O)N1 [(E)-2-((E)-(3,5-Dichloro-2-hydroxybenzylidene)hydrazono)thiazolidin-4-one (5)] | 26.7 |
| COc1cc(/C=N/N=C2\NC(=O)CS2)cc(OC)c1O [(E)-2-((E)-(4-Hyrazoxy-3,5-dimethoxybenzylidene)hydrazono)thiazolidin-4-one (9)] | 37.9 |
| O=C1CS/C(=N/N=C\C2C=Nc3ccccc32)N1 (centres undefined) [(E)-2-(E)-((1H-Indole-3-yl)methylene)hydrazono)thiazolidine-4-one (16)] | 51.4 |
| COc1ccc(/C=N\N=C2/NC(=O)CS2)c(OC)c1 [(Z)-2-((Z)-(2,4-Dimethoxybenzoylidine)hydrazono)thiazolidine-4-one (18)] | 69.6 |
| NC(N)=S [thiocarbamide] | 21.2 |

Now those with a lower IC50, led by results:

| IC50 [µM] | Structure (SMILES) |
| --- | --- |
| 8.43 | O=C1CS/C(=N/N=C/c2cccc([N+](=O)[O-])c2)N1 [(E)-2((E)-(3-nitrobenzylidene)hydrazono)thiazolidin-4-one (8)] |
| 9.34 | O=C1CS/C(=N/N=C\c2ccc(O)c(Cl)c2)N1 [(E)-2-((E)-(3-Chloro-4-hydroxybenzylideno)thiazolidin-4-one (3)] |
| 2.31 | C/C(=N/N=C1\NC(=O)CS1)c1ccc([N+](=O)[O-])cc1Br [(Z)-2-((Z)-(1-(2-Bromo-4-nitrophenyl)ethylidene)hydrazono)thiazolidine-4-one (15)] |
| 5.75 | CCOc1ccc(/C=N\N=C2/NC(=O)CS2)cc1OC [(Z)-2-((Z)-(4-Ethoxy-3-methoxybenzoylidine)hydrazono)thiazolidine-4-one (17)] |
